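Dose response: 5 concentrations. Exposure: 48 h. Format: 96-well plates. Endpoint: linear interpolation; highest concentration if not reached. Definition used: TGI = concentration required for complete inhibition of growth.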
Assays:
Assay in all cases: NCI anticancer screen, dose series, 48 h
[1] = tested on: MALME-3M melanoma
[2] = tested on: NCI-H23 lung
[3] = tested on: UO-31 renal
[4] = tested on: SNB-19 CNS
[5] = tested on: OVCAR-3 ovarian
[6] = tested on: MCF7 breast
[7] = tested on: CAKI-1 renal
[8] = tested on: HT29 colon
[9] = tested on: EKVX NSCLC
[10] = tested on: A549 NSCLC
[11] = tested on: HCT-116 colon
[12] = tested on: HS 578T breast
[13] = tested on: SF-295 CNS
[14] = tested on: OVCAR-4 ovarian
[15] = tested on: UACC-257 melanoma
[16] = tested on: NCI/ADR-RES ovarian
[17] = tested on: OVCAR-5 ovarian
[18] = tested on: HOP-92 NSCLC
[19] = tested on: HCC-2998 colon
[20] = tested on: BT-549 breast

Row | SMILES | TGI [1] [µM] | TGI [2] [µM] | TGI [3] [µM] | TGI [4] [µM] | TGI [5] [µM] | TGI [6] [µM] | TGI [7] [µM] | TGI [8] [µM] | TGI [9] [µM] | TGI [10] [µM] | TGI [11] [µM] | TGI [12] [µM] | TGI [13] [µM] | TGI [14] [µM] | TGI [15] [µM] | TGI [16] [µM] | TGI [17] [µM] | TGI [18] [µM] | TGI [19] [µM] | TGI [20] [µM]
1 | CCOC(=O)C(NC(C)=O)(Nc1ccc(S(N)(=O)=O)cc1)C(F)(F)F (configuration not stated) | > 100 | > 100 | > 100 | > 100 | > 100 | > 100 | > 100 | > 100 | > 100 | > 100 | > 100 | > 100 | > 100 | > 100 | > 100 | > 100 | > 100 | > 100 | > 100 | 
2 | O=c1oc2ccccc2c(O)c1C(c1cnc2ccccc2c1)c1c(O)c2ccccc2oc1=O | > 100 | > 100 | > 100 | > 100 | > 100 |  | > 100 | > 100 | > 100 |  | > 100 | 80.6 |  | > 100 | > 100 | > 100 |  | 58.6 |  | 68
3 | N#CC(C#N)=C/C=C/c1c(Cl)cccc1Cl | 3.15 | 2.87 | 3.39 | > 10 | 5.67 | 7.04 | 4.55 | 3.25 | > 10 | 7.22 | 2.62 | 5.55 | 4.38 | 3.49 | 2.99 | 4.98 |  | 4.8 | 3.34 | 
4 | CCOC(=O)Cc1nnc2n(-c3ccccc3)c(=O)c3ccccc3n12 | > 100 | > 100 | > 100 | > 100 | > 100 | > 100 | 43.3 | > 100 | > 100 | > 100 | > 100 |  | > 100 | > 100 | > 100 | > 100 | > 100 | > 100 | > 100 | 
5 | C=CCC1(Sc2ccccn2)Sc2ccc3ccccc3c2-c2c(ccc3ccccc23)S1 | > 100 | > 100 | > 100 | > 100 | > 100 | > 100 | > 100 | > 100 | > 100 | > 100 | > 100 | > 100 | > 100 | > 100 | > 100 | > 100 | > 100 | > 100 | > 100 | 
6 | O=c1[nH]c(=O)n(C2CC(O)C(CO)O2)cc1C(F)(C(F)(F)F)C(F)(F)F (configuration not stated) | > 100 | > 100 | > 100 | > 100 | > 100 |  | > 100 | > 100 | > 100 |  |  |  | > 100 | > 100 | > 100 |  | > 100 | > 100 |  | 
7 | CN/C=C(\C(=O)c1ccc(OC)c(OC)c1)c1ccc(OC)cc1 |  | > 100 | 48.6 | > 100 |  |  |  | 38.2 | > 100 | > 100 | 18.1 |  | > 100 | 80.1 | 39.5 |  |  |  |  | 
8 | CC(C)(C)C1CCC2c3c([nH]c4ccccc34)C3C(=O)N(c4ccccc4Cl)C(=O)C3C2C1 (configuration not stated) | 37.1 | 62.7 | 78.1 | > 100 | 47.3 |  | 37.1 | 28.4 | 31.5 | 86.5 | 14.3 | 35.3 | 57.2 |  | > 100 | 44 |  | 0.739 | 11.2 | 61.6
9 | Cc1ccc(Cc2nn(C)c(=O)n2N)cc1 |  | > 100 | > 100 | > 100 | > 100 | > 100 | > 100 | > 100 | > 100 | > 100 | > 100 |  | > 100 | > 100 | > 100 | > 100 | > 100 | > 100 | > 100 | > 100
10 | COc1cc(CC2c3cc(OC)c(OC)cc3CCN2C)ccc1O (configuration not stated) | > 100 | > 100 | > 100 | > 100 | > 100 |  | > 100 | > 100 | > 100 | > 100 | > 100 |  | > 100 | > 100 | > 100 |  | > 100 |  | > 100 | 
11 | CNC1c2ccccc2C(=O)c2cc3c(cc21)OCCOCCOCCOCCO3 (configuration not stated) |  |  | > 100 | > 100 |  | > 100 |  | > 100 | > 100 | > 100 | > 100 | > 100 | > 100 | > 100 | > 100 | > 100 | > 100 |  | > 100 | 
12 | CC(NCc1c(O)ccc2ccc(=O)oc12)C(=O)O (configuration not stated) | > 100 | > 100 | > 100 | > 100 | > 100 | > 100 | > 100 | > 100 | > 100 | > 100 | > 100 | > 100 | > 100 | > 100 | > 100 | > 100 | > 100 | > 100 | > 100 | 
13 | COc1ccc(N2C(=O)C3c4[nH]c5ccccc5c4C4CC(C)(C)CC(C)(C)C4C3C2=O)cc1 (configuration not stated) | 36.3 | 33.9 | > 100 | 52.7 |  |  |  | > 100 | 38.2 | 27.3 | 30.4 |  | 21.4 | 26.2 | 46.1 |  |  | 28.7 | > 100 | 
14 | COc1ccc2c(=O)cc(-c3ccc(OC)c(OC)c3OC)oc2c1 | > 100 | > 100 | > 100 | > 100 | > 87.6 |  | > 100 | > 100 | > 100 | > 31.6 | > 100 | > 100 | > 100 | > 100 | > 100 | > 100 | > 100 | > 100 | > 100 | > 100

Reference: PubChem BioAssay (NCI)
